According to PubChem BioAssay AID248 (DTP/NCI, 2004):
Where “and” joins values, the source holds several entries; their conditions need not be identical. Identical values can stand only once. Inconclusive results and toxic doses are left out. No stated cut-off is given here; in the data, active means T/C of 150% or more; inactive means T/C below 125%.

System: L1210 leukemia ip in BDF1 mice, survival T/C
Experiment: NCI In Vivo Anticancer Drug Screen. Data for tumor model L1210 Leukemia (intraperitoneal) in B6D2F1 (BDF1) mice
Conditions: endpoint: mean survival time, higher = longer survival
Outline: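 Ratio derived from survival: compound-dosed mice over vehicle-dosed mice, all bearing a transplantable tumor.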

[1] = dose: 50.0 mg/kg/injection, schedule: Q01DX009 (ip), vehicle: saline
[2] = dose: 100.0 mg/kg/injection, schedule: Q01DX009 (ip), vehicle: saline
[3] = dose: 100.0 mg/kg/injection, schedule: Q04DX003 (ip), vehicle: saline
[4] = dose: 100.0 mg/kg/injection, schedule: Q01DX009 (ip), vehicle: Klucel (hydroxypropylcellulose) (HPC)
[5] = dose: 200.0 mg/kg/injection, schedule: Q01DX009 (ip), vehicle: Klucel (hydroxypropylcellulose) (HPC)
[6] = dose: 400.0 mg/kg/injection, schedule: Q01DX009 (ip), vehicle: Klucel (hydroxypropylcellulose) (HPC)
[7] = dose: 100.0 mg/kg/injection, schedule: Q01DX001 (ip), vehicle: carboxymethylcellulose (CMC)
[8] = dose: 200.0 mg/kg/injection, schedule: Q01DX001 (ip), vehicle: carboxymethylcellulose (CMC)
[9] = dose: 400.0 mg/kg/injection, schedule: Q01DX001 (ip), vehicle: carboxymethylcellulose (CMC)
[10] = dose: 50.0 mg/kg/injection, schedule: Q01DX001 (ip), vehicle: saline
[11] = dose: 100.0 mg/kg/injection, schedule: Q01DX001 (ip), vehicle: saline
[12] = dose: 200.0 mg/kg/injection, schedule: Q01DX001 (ip), vehicle: saline
[13] = dose: 200.0 mg/kg/injection, schedule: Q01DX009 (ip), vehicle: saline
[14] = dose: 200.0 mg/kg/injection, schedule: Q04DX003 (ip), vehicle: saline
[15] = dose: 400.0 mg/kg/injection, schedule: Q01DX001 (ip), vehicle: saline
[16] = dose: 100.0 mg/kg/injection, schedule: Q01DX009 (ip), vehicle: saline with Tween-80
[17] = dose: 100.0 mg/kg/injection, schedule: Q04DX003 (ip), vehicle: saline with Tween-80
[18] = dose: 200.0 mg/kg/injection, schedule: Q01DX009 (ip), vehicle: saline with Tween-80
[19] = dose: 200.0 mg/kg/injection, schedule: Q04DX003 (ip), vehicle: saline with Tween-80
[20] = dose: 400.0 mg/kg/injection, schedule: Q04DX003 (ip), vehicle: saline with Tween-80
[21] = dose: 50.0 mg/kg/injection, schedule: Q01DX009 (ip), vehicle: Klucel (hydroxypropylcellulose) (HPC)

Measured: T/C

CN(C)CCC(=O)/C=C\c1ccccc1
inactive: dose: 25.0 mg/kg/injection, schedule: Q01DX009 (ip), vehicle: saline 91 % of control | dose: 25.0 mg/kg/injection, schedule: Q04DX002 (ip), vehicle: saline with Tween-80 105 % of control | dose: 25.0 mg/kg/injection, schedule: Q04DX003 (ip), vehicle: saline 89 % of control | [1] 88 % of control | dose: 50.0 mg/kg/injection, schedule: Q04DX002 (ip), vehicle: saline with Tween-80 98 % of control | dose: 50.0 mg/kg/injection, schedule: Q04DX003 (ip), vehicle: saline 90 % of control | [2] 88 % of control | dose: 100.0 mg/kg/injection, schedule: Q04DX002 (ip), vehicle: saline with Tween-80 88 % of control | [3] 89 % of control

Cc1ccc(S(=O)(=O)Nc2ccc(C(=O)Cl)cc2)cc1
inactive: dose: 100.0 mg/kg/injection, schedule: Q04DX003 (ip), vehicle: gum acacia 95 % of control | dose: 200.0 mg/kg/injection, schedule: Q04DX003 (ip), vehicle: gum acacia 106 % of control | dose: 400.0 mg/kg/injection, schedule: Q04DX003 (ip), vehicle: gum acacia 90 % of control

O=C(Nc1cccc(Cl)c1Cl)N1CCN(c2ccccc2)CC1
inactive: [4] 92 % of control | [5] 96 % of control | [6] 97 % of control

CCOC(=O)C(CC(=O)O)=C1c2ccccc2-c2ccccc21
inactive: dose: 100.0 mg/kg/injection, schedule: Q01DX001 (ip), vehicle: Klucel (hydroxypropylcellulose) (HPC) 100 % of control | [4] 95 % of control and 102 % of control | dose: 100.0 mg/kg/injection, schedule: Q04DX002 (ip), vehicle: Klucel (hydroxypropylcellulose) (HPC) 95 % of control and 102 % of control | dose: 200.0 mg/kg/injection, schedule: Q01DX001 (ip), vehicle: Klucel (hydroxypropylcellulose) (HPC) 94 % of control | [5] 95 % of control and 96 % of control | dose: 200.0 mg/kg/injection, schedule: Q04DX002 (ip), vehicle: Klucel (hydroxypropylcellulose) (HPC) 96 % of control and 98 % of control

CC(=O)/C(=C\c1ccccc1)c1ccccc1
inactive: dose: 100.0 mg/kg/injection, schedule: Q04DX003 (ip), vehicle: Klucel (hydroxypropylcellulose) (HPC) 96 % of control | dose: 200.0 mg/kg/injection, schedule: Q04DX003 (ip), vehicle: Klucel (hydroxypropylcellulose) (HPC) 91 % of control | dose: 400.0 mg/kg/injection, schedule: Q04DX003 (ip), vehicle: Klucel (hydroxypropylcellulose) (HPC) 98 % of control

Fc1cc(N(CCCl)CCCl)ccc1CN1CCCN(Cc2ccc(N(CCCl)CCCl)cc2F)C1c1ccc(N(CCCl)CCCl)cc1F
inactive: dose: 50.0 mg/kg/injection, schedule: Q01DX001 (ip), vehicle: carboxymethylcellulose (CMC) 100 % of control | [7] 96 % of control | [8] 102 % of control | [9] 94 % of control

CC[CH2][Sn]([CH2]CC)([CH2]CC)[O]C(=O)CN1CCC[CH]([Hg][c]2cccnc2)C1 (centres undefined)
inactive: [10] 98 % of control | [11] 109 % of control | [12] 104 % of control

CC(C)(C#N)NC(N)=O
inactive: [11] 101 % of control | [2] 103 % of control | [3] 107 % of control | [12] 102 % of control | [13] 102 % of control | [14] 104 % of control | [15] 98 % of control | dose: 400.0 mg/kg/injection, schedule: Q01DX009 (ip), vehicle: saline 97 % of control | dose: 400.0 mg/kg/injection, schedule: Q04DX003 (ip), vehicle: saline 102 % of control

CCN(C(=O)C(F)(F)F)C1(c2ccc(Cl)cc2)CCCCC1SSSC1CCCCC1(c1ccc(Cl)cc1)N(CC)C(=O)C(F)(F)F (centres undefined)
inactive: [16] 106 % of control | [17] 87 % of control | [18] 98 % of control | [19] 89 % of control | dose: 400.0 mg/kg/injection, schedule: Q01DX009 (ip), vehicle: saline with Tween-80 108 % of control | [20] 89 % of control

CCN(CC)C(=O)OCCCN(C)C
inactive: [21] 96 % of control | [3] 105 % of control | [14] 105 % of control

O=C(N/N=C/c1ccccc1Cl)c1ccccc1NC(=O)C1CC1
inactive: [4] 97 % of control | [5] 98 % of control | [6] 101 % of control

Oc1cc(O)c2c(c1)OC(O)(c1ccc(O)c(O)c1)C(O)O2 (centres undefined) (tested in a mixture with another compound)
inactive: dose: 50.0 mg/kg/injection, schedule: Q01DX009 (ip), vehicle: saline with Tween-80 104 % of control | [16] 95 % of control | [18] 102 % of control

O=C1NC(=O)C(c2cccc(O)c2)N1 (centres undefined)
inactive: [10] 100 % of control | [11] 100 % of control | [12] 100 % of control | [15] 100 % of control

CCOC(=O)CCCNCCCC(=O)OCC
inactive: [11] 97 % of control | [12] 103 % of control | [15] 114 % of control

CCNCCn1cccc1
inactive: [1] 97 % of control | [2] 100 % of control | [3] 97 % of control | [13] 97 % of control | [14] 100 % of control

O=C(CBr)c1ccc2cc(Br)c3ccccc3c2c1
inactive: dose: 55.0 mg/kg/injection, schedule: Q01DX Z (ip), vehicle: methylcellulose (MC) 90 % of control | dose: 83.0 mg/kg/injection, schedule: Q01DX Z (ip), vehicle: methylcellulose (MC) 94 % of control | dose: 125.0 mg/kg/injection, schedule: Q01DX Z (ip), vehicle: methylcellulose (MC) 102 % of control

CCN(CC)CCOc1ccccc1C
inactive: dose: 20.0 mg/kg/injection, schedule: Q01DX009 (ip), vehicle: saline 90 % of control | dose: 40.0 mg/kg/injection, schedule: Q01DX009 (ip), vehicle: saline 88 % of control | dose: 40.0 mg/kg/injection, schedule: Q04DX003 (ip), vehicle: saline 106 % of control | dose: 80.0 mg/kg/injection, schedule: Q01DX009 (ip), vehicle: saline 89 % of control | dose: 80.0 mg/kg/injection, schedule: Q04DX003 (ip), vehicle: saline 100 % of control

O=C(N/N=C/c1ccco1)C1CCCO1 (centres undefined)
inactive: dose: 25.0 mg/kg/injection, schedule: Q01DX009 (ip), vehicle: Klucel (hydroxypropylcellulose) (HPC) 101 % of control | [21] 102 % of control | [4] 101 % of control and 114 % of control | [5] 106 % of control

CCCC(=O)C(CCN(C)C)c1ccccn1 (centres undefined)
inactive: dose: 44.0 mg/kg/injection, schedule: Q01DX Z (ip), vehicle: methylcellulose (MC) 94 % of control | dose: 66.0 mg/kg/injection, schedule: Q01DX Z (ip), vehicle: methylcellulose (MC) 107 % of control

Cc1ncc(COCc2ccccc2)c(CO)c1OCc1ccccc1
inactive: [7] 92 % of control | [8] 94 % of control | [9] 94 % of control

O=C(Nc1ccccc1C(F)(F)F)N(Cc1ccccc1)Cc1ccccc1
inactive: [4] 101 % of control | [5] 87 % of control | [6] 95 % of control

CC1(C)CC(N=Cc2ccccc2O)CC(C)(C)N1O
inactive: [17] 94 % of control | [19] 97 % of control | [20] 100 % of control

CC(C)SCC(NC(=O)/C=C/c1ccccc1)C(=O)O (centres undefined)
inactive: dose: 50.0 mg/kg/injection, schedule: Q04DX003 (ip), vehicle: other 97 % of control | dose: 100.0 mg/kg/injection, schedule: Q04DX003 (ip), vehicle: other 101 % of control | dose: 200.0 mg/kg/injection, schedule: Q04DX003 (ip), vehicle: other 95 % of control

COC(=O)CCCc1c[nH]c2ccccc12
inactive: dose: 100.0 mg/kg/injection, schedule: Q01DX009 (ip), vehicle: other 93 % of control | dose: 200.0 mg/kg/injection, schedule: Q01DX009 (ip), vehicle: other 100 % of control | dose: 400.0 mg/kg/injection, schedule: Q01DX009 (ip), vehicle: other 90 % of control

O=C(O)c1cccc(OCCCOc2ccccc2)c1
inactive: [4] 92 % of control | [5] 90 % of control | [6] 95 % of control
